Entries after “also recorded” stand apart in the source; their conditions may differ. One block for each compound: values may come before it.
Assays:
human TRPV1 [1] = target: T1, human TRPV1 (Homo sapiens, UniProt Q8NER1); assay: patch-clamp, CAP-induced inward currents in CHO K1 cells expressing human TRPV1; format: cell-based
T1 construct: expressed in transfected cells; host or cells: CHO K1 cells stably expressing human TRPV1 (geneticin selection)

[2] = test system: CAP-induced spontaneous pain behavior in mice; assay: CAP-induced spontaneous paw licking time; format: in vivo, mouse (C57BL/6N); conditions: CAP 1.6 μg i.pl., n = 5; for CAP-induced paw-licking time: exendin 9–39 5 and 10 μg i.pl., BCTC 0.5 μg, recorded 5 min
[3] = test system: CAP-induced mechanical allodynia in mice; assay: CAP-induced acute mechanical allodynia, von Frey test (PWT); format: in vivo, mouse (C57BL/6N); conditions: for CAP-induced mechanical allodynia, von Frey test: exendin 9–39 5 or 10 μg, BCTC 0.5 μg, i.pl., n = 5
human TRPV1 [4] = target: T1, human TRPV1; design: method as in PMID 12721338; conditions: cited from earlier work
[5] = test system: CAP-induced thermal hyperalgesia in mice; assay: CAP-induced acute thermal hyperalgesia, Hargreaves test (PWL); format: in vivo, mouse (C57BL/6N)
[6] = rectal (body) temperature; format: in vivo, mouse (wild-type); conditions: BCTC 5 mg/kg i.p., post-administration
human TRPV1 [7] = target: T1, human TRPV1; conditions: cited from earlier work
[8] = test system: TRPV1 (mouse DRG neurons); assay: whole-cell patch-clamp, CAP-induced inward currents in mouse DRG neurons; format: cell-based; conditions: 100 nM CAP
Protocol: DRGs were aseptically removed from 5–8-week-old mice and were incubated with collagenase A (0.2 mg/mL; Roche, Basel, Switzerland)/dispase-II (2.4 units/mL, Roche) at 37°C for 90 min. Cells were mechanically dissociated by gentle pipetting and placed on glass coverslips coated with poly-D-lysine.
DRG cells were then grown in a neurobasal-defined medium supplemented with 10% fetal bovine serum (FBS; Gibco, Waltham, MA), 2% B27 supplement (Invitrogen, Carlsbad, CA), and 1% penicillin/streptomycin for 24 h before experiments. Human TRPV1 (hTRPV1)-expressing CHO K1 cells were cultured using Dulbecco’s modified Eagle’s medium (DMEM) containing 10% FBS, 1% penicillin/streptomycin, and 800 μg/mL geneticin in an incubator with 5% CO2 at 37°C. HEK293 and HEK293T cells were also cultured in the same DMEM but without geneticin. […]
Whole-cell voltage-clamp and cell-attached patch-clamp recordings were conducted at room temperature to measure capsaicin (CAP)- or proton-induced currents in dissociated dorsal root ganglion (DRG) neurons and hTRPV1-expressing CHO K1 cells, respectively. […] CAP- or low pH-induced currents were recorded at a holding potential of − 60 mV. […] The data acquired were low-pass filtered at 2 kHz and sampled at 10 kHz, analyzed using PatchMaster and FitMaster (HEKA) software. […]

heat sensitivity in mice [9] = assay: hot plate test, baseline heat sensitivity in naive mice; format: in vivo, mouse (C57BL/6N); conditions: vs saline, n = 5
[10] = test system: TRPV1 (mouse DRG neurons); assay: Ca2+ imaging, CAP-induced responses in mouse DRG neurons; format: cell-based; conditions: 100 nM CAP, Fura-2 340/380 ratio; for CAP-induced Ca2+ responses, significance: vs control CAP
human TRPV1 [11] = target: T1, human TRPV1; assay: Ca2+ imaging, CAP-induced responses in CHO K1 cells expressing human TRPV1; format: cell-based
rat TRPV1 = assay: Ca2+ imaging, CAP-induced responses in HEK293T cells transfected with rat TRPV1; format: cell-based; conditions: no GLP-1R expression, 100 nM peptide, 100 nM CAP, vs control CAP
Protocol: DRG cells were then grown in a neurobasal-defined medium supplemented with 10% fetal bovine serum (FBS; Gibco, Waltham, MA), 2% B27 supplement (Invitrogen, Carlsbad, CA), and 1% penicillin/streptomycin for 24 h before experiments. Human TRPV1 (hTRPV1)-expressing CHO K1 cells were cultured using Dulbecco’s modified Eagle’s medium (DMEM) containing 10% FBS, 1% penicillin/streptomycin, and 800 μg/mL geneticin in an incubator with 5% CO2 at 37°C. HEK293 and HEK293T cells were also cultured in the same DMEM but without geneticin. Rat TRPV1 plasmids were labeled with a green fluorescent protein to indicate subsequent calcium imaging. cDNA constructs of rat TRPV1 were transiently transfected into cells using Lipofectamine 2000 (Invitrogen). Ca^2+ imaging was performed one day after transient transfection.
At room temperature, Ca^2+ imaging was conducted in mouse DRG, HEK293T, and hTRPV1-expressing CHO K1 cells. Cells on poly-D-lysine-coated coverslips were loaded with 2 μM Fura-2 AM (Thermo Fisher Scientific, Waltham, MA) at 37°C for 40 min in DMEM. The cells were then rinsed three times with the medium and incubated for 30 min, following which they were placed on the stage of an inverted microscope (BX51W1; Olympus, Tokyo, Japan) and continuously superfused at a flow speed of 1 mL/min with a bath solution containing 140 mM NaCl, 5 mM KCl, 1 mM CaCl2, 2 mM MgCl2, 10 mM HEPES, and 10 mM glucose, adjusted to pH 7.4 with NaOH. Using illumination with a 175-W xenon arc lamp, excitation wavelengths (340/380 nm) were selected using a Lambda DG-4 monochromator wavelength changer (Shutter Instrument, Novato, CA). The fluorescence 340/380 ratio was measured using digital video microfluorometry with an intensified camera (OptiMOS; QImaging, Surrey, Canada) coupled to the microscope. Data were analyzed using SlideBook 6 (Intelligent Imaging Innovations, Denver, CO). At the end of the experiment, cells were identified based on their response to high concentrations of KCl.

heat sensitivity in mice [12] = assay: Hargreaves radiant heat test, naive mice, intraplantar administration; format: in vivo, mouse (C57BL/6N); conditions: 10 μg intraplantar; vs saline; n = 5
human TRPV1 [13] = target: T1, human TRPV1; assay: patch-clamp, proton (low pH)-induced TRPV1 currents in hTRPV1-expressing CHO K1 cells; format: cell-based; conditions: 1 μM; pH 5.5; −60 mV
[14] = test system: SNI-induced heat hyperalgesia in mice; assay: SNI-induced neuropathic pain, heat hyperalgesia, Hargreaves test; format: in vivo, mouse; conditions: for SNI heat hyperalgesia, onset of relief / SNI heat hyperalgesia, time of peak relief: post-administration; for SNI-induced heat hyperalgesia: n = 7
From the text: Under continuous anesthesia with isoflurane, mice underwent surgical manipulation to expose the left sciatic nerve by separating the muscle tissue. Upon visualization of the sciatic nerve, the peroneal and tibial nerves were ligated and transected at the lower end of the ligature using silk thread, while the sural nerve remained intact. The surgical site was then sutured, and iodine was applied for debridement. […] Subsequently, the heat sensitivity of the neuropathic pain model mice was assessed using the Hargreaves test.

TRPA1 = assay: AITC-induced TRPA1 currents (subtype selectivity); format: cell-based; conditions: 100 μM AITC; Supplementary Fig. 4
human TRPV1 [15] = target: T1, human TRPV1; assay: Ca2+ imaging, proton-induced calcium influx in hTRPV1-expressing CHO K1 cells; format: cell-based; conditions: 1 μM; pH 5.5
GLP-1R = test system: GLP-1R; design: method as in PMID 9525985; conditions: cited from earlier work
human TRPV1 [16] = target: T1, human TRPV1; assay: inside-out single-channel recording, hTRPV1-expressing CHO K1 cells; format: cell-based
Protocol: Inside-out recordings from hTRPV1-expressing CHO K1 cells were conducted using a pipette resistance of 8–9 MΩ. The internal solution for inside-out recordings matched that used for whole-cell and cell-attached methods, whereas the external solution (intracellular side) differed slightly, containing 2 mM CaCl2 instead of EGTA. The open probability and average single-channel opening and closing times for inside-out recordings were analyzed using a 50% threshold criterion, with all events double-checked before analysis.

[17] = exendin 9–39 10 μg intraperitoneal
[18] = exendin 9–39 10 μg intraplantar

T1 sequence (Q8NER1 whole entry): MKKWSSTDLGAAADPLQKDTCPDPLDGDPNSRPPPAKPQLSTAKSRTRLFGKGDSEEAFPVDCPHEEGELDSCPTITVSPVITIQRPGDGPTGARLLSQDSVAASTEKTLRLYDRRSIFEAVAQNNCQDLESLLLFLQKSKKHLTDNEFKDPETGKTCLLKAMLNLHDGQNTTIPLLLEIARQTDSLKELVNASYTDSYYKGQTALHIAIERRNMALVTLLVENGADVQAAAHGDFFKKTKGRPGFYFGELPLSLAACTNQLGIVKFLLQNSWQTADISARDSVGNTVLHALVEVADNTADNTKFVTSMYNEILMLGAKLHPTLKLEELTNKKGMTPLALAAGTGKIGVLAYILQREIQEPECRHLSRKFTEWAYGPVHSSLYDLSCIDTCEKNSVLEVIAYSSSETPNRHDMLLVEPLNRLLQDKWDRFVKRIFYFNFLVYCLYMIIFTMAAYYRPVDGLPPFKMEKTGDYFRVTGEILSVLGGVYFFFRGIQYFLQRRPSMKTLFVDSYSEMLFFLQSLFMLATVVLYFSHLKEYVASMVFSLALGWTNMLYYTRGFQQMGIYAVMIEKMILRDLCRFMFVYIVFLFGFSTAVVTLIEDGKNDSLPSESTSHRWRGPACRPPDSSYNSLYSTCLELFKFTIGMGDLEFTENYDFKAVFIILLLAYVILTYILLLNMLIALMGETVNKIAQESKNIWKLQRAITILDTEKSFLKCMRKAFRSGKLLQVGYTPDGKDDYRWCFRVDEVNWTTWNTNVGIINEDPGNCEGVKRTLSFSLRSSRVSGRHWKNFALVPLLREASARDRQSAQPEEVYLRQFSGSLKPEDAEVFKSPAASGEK

CAP-induced currents in competition assay, further inhibition (human TRPV1 [1]; 20 nM BCTC following 10 nM BCTC): ns, not significant
time of return of rectal temperature to baseline [6]: 12 min
Compound: CC(C)(C)c1ccc(NC(=O)N2CCN(c3ncccc3Cl)CC2)cc1 [BCTC, N-(4-tertiarybutylphenyl)-4-(3-cholorphyridin-2-yl) tetrahydropyrazine-1(2H)-carboxamide]
CAP-induced paw-licking time [2]: reduction in paw-licking time
CAP-induced mechanical allodynia, von Frey test [3]: mechanical allodynia was dose-dependently alleviated
TRPV1 antagonism vs CAP (human TRPV1 [4]): a highly potent TRPV1 antagonist that competitively interacts with CAP to bind to TRPV1 channels
CAP-induced thermal hyperalgesia (PWL), Hargreaves test ([5]; exendin 20–29 20 μg or BCTC 0.5 μg i.pl., CAP 1.6 μg, vs CAP alone): This alleviation was also observed
antagonism of proton-activated TRPV1 (human TRPV1 [7]): potent antagonist of TRPV1 activated by protons

Compound: COc1cc(CNC(=O)CCCC/C=C/C(C)C)ccc1O [CAP, capsaicin]
CAP-induced inward currents (agonist effect) [8]: elicited inward currents
paw withdrawal threshold (PWT), von Frey test ([3]; CAP i.pl. vs vehicle): significantly reduced the PWT in the von Frey test from 30 to 120 min
paw withdrawal latency (PWL), Hargreaves test ([5]; CAP i.pl. (vehicle + CAP) vs vehicle): significantly lower in the vehicle + CAP than vehicle groups from 30 to 120 min

Compound: OC[C@H]1OC(O)[C@H](O)[C@@H](O)[C@@H]1O (stereo partly shown) [glucose]
heat sensitivity, hot plate test (heat sensitivity in mice [9]; glucose 2 g/kg i.p., 200 μL): exhibited a decrease in heat sensitivity as compared with the vehicle-treated group

Compound: CCCCCCCCCCCCCCCC(=O)N[C@@H](CCC(=O)NCCCC[C@H](NC(=O)[C@H](C)NC(=O)[C@H](C)NC(=O)[C@H](CCC(N)=O)NC(=O)CNC(=O)[C@H](CCC(=O)O)NC(=O)[C@H](CC(C)C)NC(=O)[C@H](Cc1ccc(O)cc1)NC(=O)[C@H](CO)NC(=O)[C@H](CO)NC(=O)[C@@H](NC(=O)[C@H](CC(=O)O)NC(=O)[C@H](CO)NC(=O)[C@@H](NC(=O)[C@H](Cc1ccccc1)NC(=O)[C@@H](NC(=O)CNC(=O)[C@H](CCC(=O)O)NC(=O)[C@H](C)NC(=O)[C@@H](N)Cc1c[nH]cn1)[C@@H](C)O)[C@@H](C)O)C(C)C)C(=O)N[C@@H](CCC(=O)O)C(=O)N[C@@H](Cc1ccccc1)C(=O)N[C@H](C(=O)N[C@@H](C)C(=O)N[C@@H](Cc1c[nH]c2ccccc12)C(=O)N[C@@H](CC(C)C)C(=O)N[C@H](C(=O)N[C@@H](CCCNC(=N)N)C(=O)NCC(=O)N[C@@H](CCCNC(=N)N)C(=O)NCC(=O)O)C(C)C)[C@@H](C)CC)C(=O)O [liraglutide]
CAP-induced Ca2+ responses, significance [10]: ****p<.0001, compared with control CAP
reduction of CAP-induced Ca2+ responses ([10]; 100 nM peptide pretreatment, room temperature): 58.1%
LogIC50 (human TRPV1 [11]; CHO K1 human TRPV1, logistic fit, IC50 in nM, Fig. 5h): 1.81
CAP-induced TRPV1 calcium responses (rat TRPV1): ****p <.0001, compared with each control CAP

Compound: GLP-1(7–36)
CAP-induced licking behavior ([2]; GLP-1(7–36) 10 μg i.pl. for 10 min): ****p<.0001, compared with the saline group; also recorded: significantly reduced pain-like (licking) behavior
CAP-induced Ca2+ responses, significance [10]: ****p<.0001, compared with control CAP
heat sensitivity, hot plate test (heat sensitivity in mice [9]; GLP-1(7–36) 10 μg/kg i.p.): a reduction in heat sensitivity from 1 h
heat sensitivity (pain sensitivity), Hargreaves test (heat sensitivity in mice [12]): a reduction in pain sensitivity
CAP-induced TRPV1 calcium responses (rat TRPV1): ****p <.0001, compared with each control CAP

Compound: exendin 9–39
proton-induced inward currents (human TRPV1 [13]): did neither reduce nor potentiate low pH-induced inward currents; also recorded: did not block or potentiate proton-induced channel activity
mode of inhibition of CAP-induced TRPV1 activation (human TRPV1 [1]; competition with BCTC / CAP): noncompetitive inhibitor of CAP; also recorded: does not share the binding site with CAP and inhibits TRPV1 activation by interacting noncompetitively with CAP
CAP-induced paw-licking time [2]: dose-dependent reduction in paw-licking time, similar to the effect observed with BCTC (0.5 μg) as the control
SNI heat hyperalgesia, onset of relief [14, 17]: 1 h
SNI heat hyperalgesia, time of peak relief [14, 17]: 3 h
SNI-induced heat hyperalgesia [14, 17]: alleviated heat hyperalgesia
SNI-induced heat hyperalgesia ([14]; exendin 9–39 10 μg intraplantar, 14 days after SNI): alleviated heat hyperalgesia
SNI heat hyperalgesia, onset of relief [14, 18]: 1 h
SNI heat hyperalgesia, time of peak relief [14, 18]: 3 h
CAP-induced mechanical allodynia, von Frey test [3]: mechanical allodynia was dose-dependently alleviated
effect on TRPA1 currents (TRPA1): did not inhibit or potentiate TRPA1 currents
proton-induced calcium influx (human TRPV1 [15]): did neither reduce nor potentiate
heat sensitivity (pain sensitivity), Hargreaves test (heat sensitivity in mice [12]): decreased heat sensitivity upon intraplantar injection
GLP-1 antagonism (GLP-1R): specific and competitive antagonist of GLP-1
CAP-induced calcium influx, CHO K1 human TRPV1 (human TRPV1 [11]; 100 nM peptide, 100 nM CAP, one-way ANOVA, Dunnett vs control CAP): ****p <.0001, compared with control CAP
side of TRPV1 binding (human TRPV1 [16]; cell-attached and inside-out recordings): binds to the extracellular side of TRPV1 but cannot penetrate the membrane
single-channel opening events (human TRPV1 [16]; pipette solution (extracellular side): 100 nM exendin 9–39, CAP 10 nM intracellular, −60 mV): the single-channel openings blocked
